Laboratory results published in patent US4774230A, “Glucuronic acid derivatives of opioid antagonists” (Ivax Laboratories, Inc., priority 1988, dated 1988).
Where a name gives a salt, the structure may show the parent alone.

How the values were obtained:
intestinal transit = assay: charcoal meal assay (gastrointestinal motility), alleviation of morphine-induced hypomotility; type: in vivo, mice; conditions: for effect on intestinal transit in the absence of morphine: no morphine, groups 4 and 6; for protection of the intestine against the depressant effect of morphine / percentage of intestine traveled compared with group 1 (no morphine): with morphine; for protection of the intestine against the depressant effect of morphine: groups 5 and 7; for percentage of intestine traveled compared with group 1 (no morphine): groups 5 and 7 vs group 1
Procedure: Summary of the Results of the Charcoal Meal Assay^a
(Gastrointestial Motility) in Mice Given Nalmefene HCl
and Nalmefene-β-D-Glucuronide
^b The first vehicle or drug listed under Treatment was given 30
minutes before the second vehicle or drug listed. The results were
determined 30 min later. All treatments are p.o. and given in a volume of
0.3 ml. Doses were 10 mg/kg for morphine, 15 mg/kg or 2.9 ×

[1] = analysis of blood, urine and feces after oral nalmefene (free nalmefene versus nalmefene glucuronide); type: in vivo, rats; conditions: oral administration
From the text: Such a high degree of biotransformation is common for this type of drug.

constipation = conditions: patients not exposed to an exogenous opioid; Kreek et al., Lancet 1983; cited from earlier work
[2] = system: opioid-dependant animals (central nervous system); assay: Rapid Quantitative In Vivo Assay for Narcotic Antagonist (skin tail temperature rise, CNS withdrawal sign); conditions: FIG. 2; injection of 1000 μg/kg
From the text: The Rapid Quantitative In Vivo Assay for Narcotic Antagonist of Katovich et al. (Substance and Alcohol Actions/Misuse, vol 5: 87095, 1984) was used. This assay is based on the extreme sensitivity of opioid-dependant animals to narcotic antagonists. Injection of these animals with a narcotic antagonist produces severe central nervous system withdrawal signs. One of these signs is an abrupt rise in the skin temperature of the tail.

[3] = absorption and distribution of ^14 C labelled nalmefene glucuronide after oral administration; type: in vivo, rats
From the text: Therefore the glucuronide of an opioid antagonist provides a means of preventing narcotic-induced intestinal hypomotility without interfering with central nervous system effects of narcotics, such as analgesia.

C=C1CC[C@@]2(O)[C@H]3Cc4ccc(O)c5c4[C@@]2(CCN3CC2CC2)[C@H]1O5 [nalmefene, 6-methylene-6-desoxy-N-cyclopropylmethyl-14-hydroxydihydronormorphine]
effect on intestinal transit in the absence of morphine (intestinal transit): neither nalmefene (group 6) nor nalmefene glucuronide (group 4) had any significant effect | protection of the intestine against the depressant effect of morphine (intestinal transit): protected the intestine against the depressant effect of morphine | percentage of intestine traveled compared with group 1 (no morphine) (intestinal transit): not significantly less than in the group (group 1) where no morphine was present | biotransformation by "first-pass" metabolism [1]: almost totally biotransformed

C=CCN1CC[C@]23c4c5ccc(O)c4O[C@H]2C(=O)CC[C@@]3(O)[C@H]1C5 [naloxone]
relief of constipation (constipation): relieves constipation

C=C1CC[C@@]2(O)[C@H]3Cc4ccc(O)c5c4[C@@]2(CCN3CC2CC2)[C@H]1O5 [Nalmefene HCl]
Percent Meal Traveled ± S.E.M. (intestinal transit; Group 6: Saline + Nalmefene HCl, 2.9 × 10^-6 M/kg p.o., N = 8): 63 ± 2% | Percent Meal Traveled ± S.E.M. (intestinal transit; Group 7: Morphine (10 mg/kg p.o., 30 min before) + Nalmefene HCl 2.9 × 10^-6 M/kg p.o., N = 5, no difference vs Saline + Saline, p < 0.05 vs Morphine + Saline): 66 ± 14%

CN1CC[C@]23c4c5ccc(O)c4O[C@H]2[C@@H](O)C=C[C@H]3[C@H]1C5 [Morphine]
Percent Meal Traveled ± S.E.M. (intestinal transit; Group 2: Saline + Morphine, morphine 10 mg/kg p.o. given 30 min after saline, N = 8, significantly different (p < 0.05) from Saline + Saline controls): 28 ± 2% | Percent Meal Traveled ± S.E.M. (intestinal transit; Group 3: Morphine + Saline, morphine 10 mg/kg p.o. given 30 min before saline, N = 8, p < 0.05 vs Saline + Saline, no difference vs Saline + Morphine): 31 ± 3% | reduction of the percentage of the intestine traveled (intestinal transit; morphine, groups 2 and 3): reduced the percentage of the intestine traveled by more than half

C=C1CC[C@@]2(O)[C@H]3Cc4ccc(O[C@@H]5O[C@H](C(=O)O)[C@@H](O)[C@H](O)[C@H]5O)c5c4[C@@]2(CCN3CC2CC2)[C@H]1O5 [nalmefene glucuronide, nalmefene-3β-D-glucuronide]
Percent Meal Traveled ± S.E.M. (intestinal transit; Group 4: Saline + Nalmefene Glucuronide, 15 mg/kg or 2.9 × 10^-6 M/kg p.o., N = 8, no significant difference vs Saline + Saline): 66 ± 3% | Percent Meal Traveled ± S.E.M. (intestinal transit; Group 5: Morphine (10 mg/kg p.o., 30 min before) + Nalmefene Glucuronide 15 mg/kg or 2.9 × 10^-6 M/kg p.o., N = 5, no difference vs Saline + Saline, p < 0.05 vs Morphine + Saline): 58 ± 12% | effect on intestinal transit in the absence of morphine (intestinal transit): neither nalmefene (group 6) nor nalmefene glucuronide (group 4) had any significant effect | effectiveness against morphine-induced intestinal hypomotility compared with nalmefene (intestinal transit; vs nalmefene): as effective as nalmefene | protection of the intestine against the depressant effect of morphine (intestinal transit): protected the intestine against the depressant effect of morphine | percentage of intestine traveled compared with group 1 (no morphine) (intestinal transit): not significantly less than in the group (group 1) where no morphine was present | effect on skin tail temperature [2]: no effect | form of the drug in the cecum ([3]; 2 hours after oral dosing): almost exclusively free nalmefene | part of the dose present in the small intestine still as nalmefene glucuronide ([3]; 2 hours after oral dosing): about 85% | part of the dose which had reached the cecum ([3]; 2 hours after oral dosing): 2-3% | radioactivity in plasma ([3]; 2 hours after oral dosing): No radioactivity could be detected in plasma | absorption following oral administration ([3]; ^14 C label, oral doses as high as 40 mg/kg): not absorbed to any measurable extent
